Reference: PubChem BioAssay AID1963967 (Molecular Pharmacology Branch, DTP, NCI, 2024)

Test system: 855422-203-R-J1-PDC spheroids with HUVEC/MSC, viability
Assay: Anticancer human tumor 855422-203-R-J1-PDC patient-derived bladder carcinoma cell line growth inhibition [PI3K]
Details: for viability, T/C: stronger effect = lower value
Method in brief: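 Spheroid viability read-out. Co-cultures contained the tumor line plus HUVEC and human MSCs. Each agent was paired with a PI3K inhibitor (inavolisib, alpelisib, duvelisib, copanlisib) across half-log dilutions starting at clinical Cmax, or at 10 microM when Cmax was unknown.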

[1] = curve of first compound, second compound 0.00316 µM
[2] = curve of first compound, second compound 0.01 µM
[3] = curve of first compound, second compound 0.0316 µM
[4] = curve of first compound, second compound 0.1 µM
[5] = curve of first compound, second compound 0.316 µM
[6] = curve of first compound, second compound 1 µM
[7] = second compound 0.00316 µM, first compound 0.0316 µM
[8] = second compound 0.00316 µM, first compound 0.1 µM
[9] = second compound 0.00316 µM, first compound 0.316 µM
[10] = second compound 0.00316 µM, first compound 1 µM
[11] = second compound 0.00316 µM, first compound 3.16 µM
[12] = second compound 0.00316 µM, first compound 10 µM
[13] = second compound 0.01 µM, first compound 0.0316 µM
[14] = second compound 0.01 µM, first compound 0.1 µM
[15] = second compound 0.01 µM, first compound 0.316 µM
[16] = second compound 0.01 µM, first compound 1 µM
[17] = second compound 0.01 µM, first compound 3.16 µM
[18] = second compound 0.01 µM, first compound 10 µM
[19] = second compound 0.0316 µM, first compound 0.0316 µM
[20] = second compound 0.0316 µM, first compound 0.1 µM
[21] = second compound 0.0316 µM, first compound 0.316 µM
[22] = second compound 0.0316 µM, first compound 1 µM
[23] = second compound 0.0316 µM, first compound 3.16 µM
[24] = second compound 0.0316 µM, first compound 10 µM
[25] = second compound 0.1 µM, first compound 0.0316 µM
[26] = second compound 0.1 µM, first compound 0.1 µM
[27] = second compound 0.1 µM, first compound 0.316 µM
[28] = second compound 0.1 µM, first compound 1 µM
[29] = second compound 0.1 µM, first compound 3.16 µM
[30] = second compound 0.1 µM, first compound 10 µM
[31] = second compound 0.316 µM, first compound 0.0316 µM
[32] = second compound 0.316 µM, first compound 0.1 µM
[33] = second compound 0.316 µM, first compound 0.316 µM
[34] = second compound 0.316 µM, first compound 1 µM
[35] = second compound 0.316 µM, first compound 3.16 µM
[36] = second compound 0.316 µM, first compound 10 µM
[37] = second compound 1 µM, first compound 0.0316 µM
[38] = second compound 1 µM, first compound 0.1 µM
[39] = second compound 1 µM, first compound 0.316 µM
[40] = second compound 1 µM, first compound 1 µM
[41] = second compound 1 µM, first compound 3.16 µM
[42] = second compound 1 µM, first compound 10 µM
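Also: agents incubated with spheroids for one week before read-out.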
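For viability, T/C in this document: 100% = DMSO vehicle-treated control wells.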

## CCCS(=O)(=O)Nc1ccc(F)c(C(=O)c2c[nH]c3ncc(-c4ccc(Cl)cc4)cc23)c1F + CC(Nc1ccc2c(c1)OCCn1cc(N3C(=O)OCC3C(F)F)nc1-2)C(N)=O
[1]
  IC50: 3.28 µM
[2]
  IC50: 4.55 µM
[3]
  IC50: 4.53 µM
[4]
  IC50: 3.58 µM
[5]
  IC50: 0.981 µM
[6]
  IC50: < 0.0316 µM
[7]
  viability, T/C: 110%
[8]
  viability, T/C: 89.8%
[9]
  viability, T/C: 104%
[10]
  viability, T/C: 76.1%
[11]
  viability, T/C: 52.6%
[12]
  viability, T/C: 0.17%
[13]
  viability, T/C: 99.2%
[14]
  viability, T/C: 85.2%
[15]
  viability, T/C: 91.8%
[16]
  viability, T/C: 78.5%
[17]
  viability, T/C: 75.8%
[18]
  viability, T/C: 0.24%
[19]
  viability, T/C: 92%
[20]
  viability, T/C: 79.9%
[21]
  viability, T/C: 98.7%
[22]
  viability, T/C: 87.8%
[23]
  viability, T/C: 72.5%
[24]
  viability, T/C: 0.18%
[25]
  viability, T/C: 77.2%
[26]
  viability, T/C: 82%
[27]
  viability, T/C: 74.4%
[28]
  viability, T/C: 72%
[29]
  viability, T/C: 56.7%
[30]
  viability, T/C: 0.28%
[31]
  viability, T/C: 58.9%
[32]
  viability, T/C: 53.3%
[33]
  viability, T/C: 54.9%
[34]
  viability, T/C: 48.9%
[35]
  viability, T/C: 37.1%
[36]
  viability, T/C: 0.2%
[37]
  viability, T/C: 36.7%
[38]
  viability, T/C: 36.5%
[39]
  viability, T/C: 34.2%
[40]
  viability, T/C: 34.8%
[41]
  viability, T/C: 24.1%
[42]
  viability, T/C: 0.31%

## Cn1ncc(Cl)c1-c1cc(C(=O)NC(CN)Cc2cccc(F)c2)sc1Cl (stereo not given)
Compound 0.0316 µM
  viability, T/C: 93.2% [middle of 4 runs]
Compound 0.1 µM
  viability, T/C: 75.2% [middle of 4 runs]
Compound 0.316 µM
  viability, T/C: 69.4% [middle of 4 runs]
Compound 1 µM
  viability, T/C: 49.7% [middle of 4 runs]
Compound 3.16 µM
  viability, T/C: 28.2% [middle of 4 runs]
Compound 10 µM
  viability, T/C: 8.18% [middle of 4 runs]
Curve of compound
  IC50: 936 nM [middle of 4 runs]

## CC(Cn1ccc(-c2ccc(C#N)c(Cl)c2)n1)NC(=O)c1cc(C(C)O)[nH]n1 (stereo not given) + CC(Nc1ccc2c(c1)OCCn1cc(N3C(=O)OCC3C(F)F)nc1-2)C(N)=O
[1]
  IC50: > 10 µM
[2]
  IC50: > 10 µM
[3]
  IC50: > 10 µM
[4]
  IC50: > 10 µM
[5]
  IC50: 1.67 µM
[6]
  IC50: < 0.0316 µM
[7]
  viability, T/C: 106%
[8]
  viability, T/C: 88%
[9]
  viability, T/C: 115%
[10]
  viability, T/C: 86.7%
[11]
  viability, T/C: 99%
[12]
  viability, T/C: 86%
[13]
  viability, T/C: 105%
[14]
  viability, T/C: 82.4%
[15]
  viability, T/C: 107%
[16]
  viability, T/C: 99.9%
[17]
  viability, T/C: 88.4%
[18]
  viability, T/C: 79.6%
[19]
  viability, T/C: 83.3%
[20]
  viability, T/C: 83.7%
[21]
  viability, T/C: 82%
[22]
  viability, T/C: 85%
[23]
  viability, T/C: 97.8%
[24]
  viability, T/C: 70.3%
[25]
  viability, T/C: 67.1%
[26]
  viability, T/C: 71.9%
[27]
  viability, T/C: 75.6%
[28]
  viability, T/C: 71.8%
[29]
  viability, T/C: 66.4%
[30]
  viability, T/C: 63.4%
[31]
  viability, T/C: 53.4%
[32]
  viability, T/C: 51.3%
[33]
  viability, T/C: 59.7%
[34]
  viability, T/C: 49.6%
[35]
  viability, T/C: 46.1%
[36]
  viability, T/C: 44.7%
[37]
  viability, T/C: 35.6%
[38]
  viability, T/C: 40.9%
[39]
  viability, T/C: 36.1%
[40]
  viability, T/C: 36.2%
[41]
  viability, T/C: 33.6%
[42]
  viability, T/C: 28.9%

## Cn1ncnc1[C@H]1c2n[nH]c(=O)c3cc(F)cc(c23)N[C@@H]1c1ccc(F)cc1 + CC(Nc1ccc2c(c1)OCCn1cc(N3C(=O)OCC3C(F)F)nc1-2)C(N)=O
[1]
  IC50: > 0.1 µM
[2]
  IC50: > 0.1 µM
[3]
  IC50: > 0.1 µM
[4]
  IC50: > 0.1 µM
[5]
  IC50: 0.0112 µM
[6]
  IC50: < 0.000316 µM
Second compound 0.00316 µM, first compound 0.000316 µM
  viability, T/C: 104%
Second compound 0.00316 µM, first compound 0.001 µM
  viability, T/C: 91.8%
Second compound 0.00316 µM, first compound 0.00316 µM
  viability, T/C: 107%
Second compound 0.00316 µM, first compound 0.01 µM
  viability, T/C: 87.5%
[7]
  viability, T/C: 97.8%
[8]
  viability, T/C: 109%
Second compound 0.01 µM, first compound 0.000316 µM
  viability, T/C: 114%
Second compound 0.01 µM, first compound 0.001 µM
  viability, T/C: 92.5%
Second compound 0.01 µM, first compound 0.00316 µM
  viability, T/C: 97%
Second compound 0.01 µM, first compound 0.01 µM
  viability, T/C: 99.4%
[13]
  viability, T/C: 100%
[14]
  viability, T/C: 104%
Second compound 0.0316 µM, first compound 0.000316 µM
  viability, T/C: 96.4%
Second compound 0.0316 µM, first compound 0.001 µM
  viability, T/C: 92.3%
Second compound 0.0316 µM, first compound 0.00316 µM
  viability, T/C: 90.6%
Second compound 0.0316 µM, first compound 0.01 µM
  viability, T/C: 88.3%
[19]
  viability, T/C: 96%
[20]
  viability, T/C: 91.8%
Second compound 0.1 µM, first compound 0.000316 µM
  viability, T/C: 74.7%
Second compound 0.1 µM, first compound 0.001 µM
  viability, T/C: 72.9%
Second compound 0.1 µM, first compound 0.00316 µM
  viability, T/C: 55.5%
Second compound 0.1 µM, first compound 0.01 µM
  viability, T/C: 69%
[25]
  viability, T/C: 78%
[26]
  viability, T/C: 80.8%
Second compound 0.316 µM, first compound 0.000316 µM
  viability, T/C: 56.4%
Second compound 0.316 µM, first compound 0.001 µM
  viability, T/C: 56%
Second compound 0.316 µM, first compound 0.00316 µM
  viability, T/C: 42.4%
Second compound 0.316 µM, first compound 0.01 µM
  viability, T/C: 56.1%
[31]
  viability, T/C: 54.6%
[32]
  viability, T/C: 40.7%
Second compound 1 µM, first compound 0.000316 µM
  viability, T/C: 39.1%
Second compound 1 µM, first compound 0.001 µM
  viability, T/C: 36.7%
Second compound 1 µM, first compound 0.00316 µM
  viability, T/C: 35.7%
Second compound 1 µM, first compound 0.01 µM
  viability, T/C: 35.6%
[37]
  viability, T/C: 33.5%
[38]
  viability, T/C: 27.2%

## C#Cc1c(F)ccc2cc(O)cc(-c3ncc4c(N5CC6CCC(C5)N6)nc(OCC56CCCN5CC(F)C6)nc4c3F)c12 (stereo not given) + Cc1nc(NC(=O)N2CCCC2C(N)=O)sc1-c1ccnc(C(C)(C)C(F)(F)F)c1
[3]
  IC50: > 10 µM
[4]
  IC50: > 10 µM
[5]
  IC50: > 10 µM
[6]
  IC50: > 10 µM
Curve of first compound, second compound 3.16 µM
  IC50: < 0.0316 µM
Curve of first compound, second compound 10 µM
  IC50: < 0.0316 µM
[19]
  viability, T/C: 106%
[20]
  viability, T/C: 92.8%
[21]
  viability, T/C: 108%
[22]
  viability, T/C: 95%
[23]
  viability, T/C: 115%
[24]
  viability, T/C: 115%
[25]
  viability, T/C: 100%
[26]
  viability, T/C: 88.6%
[27]
  viability, T/C: 103%
[28]
  viability, T/C: 93.9%
[29]
  viability, T/C: 115%
[30]
  viability, T/C: 113%
[31]
  viability, T/C: 91.5%
[32]
  viability, T/C: 92.9%
[33]
  viability, T/C: 97.6%
[34]
  viability, T/C: 94.4%
[35]
  viability, T/C: 97.4%
[36]
  viability, T/C: 102%
[37]
  viability, T/C: 70.5%
[38]
  viability, T/C: 78.3%
[39]
  viability, T/C: 70.7%
[40]
  viability, T/C: 73.2%
[41]
  viability, T/C: 75%
[42]
  viability, T/C: 63.3%
Second compound 3.16 µM, first compound 0.0316 µM
  viability, T/C: 41.5%
Second compound 3.16 µM, first compound 0.1 µM
  viability, T/C: 48.6%
Second compound 3.16 µM, first compound 0.316 µM
  viability, T/C: 47.1%
Second compound 3.16 µM, first compound 1 µM
  viability, T/C: 42.9%
Second compound 3.16 µM, first compound 3.16 µM
  viability, T/C: 40.6%
Second compound 3.16 µM, first compound 10 µM
  viability, T/C: 31.8%
Second compound 10 µM, first compound 0.0316 µM
  viability, T/C: 24.6%
Second compound 10 µM, first compound 0.1 µM
  viability, T/C: 21.5%
Second compound 10 µM, first compound 0.316 µM
  viability, T/C: 22.7%
Second compound 10 µM, first compound 1 µM
  viability, T/C: 22.3%
Second compound 10 µM, first compound 3.16 µM
  viability, T/C: 19%
Second compound 10 µM, first compound 10 µM
  viability, T/C: 7.62%
